Test results reported in patent publication US7291732B2, “Isomeric fused pyrrolocarbazoles and isoindolones” (Cephalon, Inc., priority 1999, dated 2007).
Read-outs that look alike come from different tables or passages of the source.

Legend:
[1] = biological target: T1, baculovirus-expressed VEGF receptor (human flk-1, KDR, VEGFR2) kinase domain (Homo sapiens, UniProt P35968); experiment: VEGF receptor kinase activity inhibition, ELISA assay; type: biochemical; settings: for IC50 / VEGFR kinase (% inhibition @ 300 nM): 40 μM ATP; for IC50: value printed without parentheses, read-out: VEGFR kinase IC50; for VEGFR kinase (% inhibition @ 300 nM): 300 nM compound, value printed in parentheses
T1 construct: VEGF receptor (human flk-1, KDR, VEGFR2) kinase domain; made in house
Experimental: Isomeric fused pyrrolocarbazole and isoindolone compounds were examined for their inhibitory effects on the kinase activity of baculovirus-expressed VEGF receptor (human flk-1, KDR, VEGFR2) kinase domain using the procedure described for the trkA kinase ELISA assay described above. The kinase reaction mixture, consisting of 50 mM Hepes, pH 7.4, 40 μM ATP, 10 mM MnCl2, 0.1% BSA, 2% DMSO, and various concentrations of inhibitor, was transferred to PLC-γ/GST-coated plates. VEGFR kinase was added and the reaction was allowed to proceed for 15 min at 37° C. Detection of phosphorylated product was accomplished by addition of anti-phosphotyrosine antibody (UBI). A secondary enzyme-conjugated antibody was delivered to capture the antibody-phosphorylated PLC-γ/GST complex. The activity of the bound enzyme was measured via an amplified detection system (Gibco-BRL). Inhibition data were analyzed using the sigmoidal dose-response (variable slope) equation in GraphPad Prism Results are summarized in Table 6.

[2] = biological target: T2, baculovirus-expressed human trkA cytoplasmic domain (Homo sapiens, UniProt P04629); experiment: trkA tyrosine kinase activity inhibition, ELISA-based assay; type: biochemical; settings: for inhibition at 0.3 µM: read-out: trkA (% inhibition @ 300 nM)
T2 construct: baculovirus-expressed human trkA cytoplasmic domain; made in house
Experimental: Selected isomeric fused pyrrolocarbazole and isoindolone compounds were tested for their ability to inhibit the kinase activity of baculovirus-expressed human trkA cytoplasmic domain using an ELISA-based assay as previously described (Angeles et al, Anal. Biochem. 236: 49-55, 1996). Briefly, the 96-well microtiter plate was coated with substrate solution (recombinant human phospholipase C-γl/glutathione S-transferase fusion protein (Rotin et al., EMBO J., II: 559-567, 1992). Inhibition studies were performed in 100 μl assay mixtures containing 50 mM Hepes, pH 7.4, 40 μM ATP, 10 mM MnCl2, 0.1% BSA; 2% DMSO, and various concentrations of inhibitor. The reaction was initiated by addition of trkA kinase and allowed to proceed for 15 minutes at 37° C. An antibody to phosphotyrosine (UBI) was then added, followed by a secondary enzyme-conjugated antibody, alkaline phosphatase-labelled goat anti-mouse IgG (Bio-Rad). The activity of the bound enzyme was measured via an amplified detection system (Gibco-BRL). Inhibition data were analyzed using the sigmoidal dose-response (variable slope) equation in GraphPad Prism.

[3] = biological target: T3, baculovirus-expressed PDGFβ receptor kinase domain (Homo sapiens, UniProt P09619); experiment: PDGF receptor kinase activity inhibition, ELISA assay; type: biochemical; settings: for inhibition at 1 µM: read-out: PDGFRβ (% inhibition @ 1 μM)
T3 construct: baculovirus-expressed PDGFβ receptor kinase domain; made in house
Experimental: Isomeric fused pyrrolocarbazole and isoindolone compounds were examined for their inhibitory effects on the kinase activity of baculovirus-expressed PDGFβ receptor kinase domain using the trkA kinase ELISA described above. Assays were performed in substrate (PLC-γ/GST)-coated 96-well microtiter plates. Each 100-μl reaction mixture contained 50 mM HEPES, pH 7.4, 20 μM ATP, 10 mM MnCl2, 0.1% BSA, 2% DMSO, and various concentrations of inhibitor. The reaction was initiated by addition of prephosphorylated recombinant human enzyme (10 ng/ml PDGFβ) and allowed to proceed for 15 minutes at 37° C. The prephosphorylated enzyme was prepared prior to use by incubation of the kinase in buffer containing 20 μM ATP and 10 mM MnCl2 for 1 hour at 4 C. Detection of phosphorylated product was done by adding horseradish peroxidase (HRP)-conjugated anti-phosphotyrosine antibody (UBI). The HRP substrate solution containing 3,3′-5,5′-tetramethylbenzidine and hydrogen peroxide was later added and the plates were incubated for 10 minutes at room temperature. The reaction was quenched with acid and the resulting absorbance was read at 450 nm using a Microplate Bio-kinetics Reader (Bio-Tek Instrument EL 312e). Inhibition data were analyzed using the sigmoidal dose-response (variable slope) equation in GraphPad Prism.

[4] = 300 nM compound, 40 μM ATP, value printed in parentheses
[5] = 1 μM compound, 20 μM ATP, value printed in parentheses

T2 sequence (P04629 440-796 limits assumed): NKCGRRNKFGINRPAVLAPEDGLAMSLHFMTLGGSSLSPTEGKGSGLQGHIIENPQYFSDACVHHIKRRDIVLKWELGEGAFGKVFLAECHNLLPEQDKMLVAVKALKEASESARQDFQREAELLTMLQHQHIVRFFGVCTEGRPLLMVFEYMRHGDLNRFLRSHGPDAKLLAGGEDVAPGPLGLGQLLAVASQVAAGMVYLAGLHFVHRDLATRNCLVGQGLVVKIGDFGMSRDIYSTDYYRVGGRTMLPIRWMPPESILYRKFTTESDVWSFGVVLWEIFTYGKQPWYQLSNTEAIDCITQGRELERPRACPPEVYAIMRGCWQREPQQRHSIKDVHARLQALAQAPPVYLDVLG
T1 sequence (P35968 834-1162 limits assumed): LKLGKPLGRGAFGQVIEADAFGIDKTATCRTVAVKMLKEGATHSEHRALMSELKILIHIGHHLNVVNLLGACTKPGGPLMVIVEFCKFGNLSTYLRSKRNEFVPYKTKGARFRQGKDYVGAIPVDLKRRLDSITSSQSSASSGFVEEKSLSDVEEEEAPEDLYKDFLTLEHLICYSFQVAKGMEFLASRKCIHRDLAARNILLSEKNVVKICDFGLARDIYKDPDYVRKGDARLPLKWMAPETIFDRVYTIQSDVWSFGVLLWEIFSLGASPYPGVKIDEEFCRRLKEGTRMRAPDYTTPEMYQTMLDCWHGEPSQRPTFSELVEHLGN
T3 sequence (P09619 600-962 limits assumed): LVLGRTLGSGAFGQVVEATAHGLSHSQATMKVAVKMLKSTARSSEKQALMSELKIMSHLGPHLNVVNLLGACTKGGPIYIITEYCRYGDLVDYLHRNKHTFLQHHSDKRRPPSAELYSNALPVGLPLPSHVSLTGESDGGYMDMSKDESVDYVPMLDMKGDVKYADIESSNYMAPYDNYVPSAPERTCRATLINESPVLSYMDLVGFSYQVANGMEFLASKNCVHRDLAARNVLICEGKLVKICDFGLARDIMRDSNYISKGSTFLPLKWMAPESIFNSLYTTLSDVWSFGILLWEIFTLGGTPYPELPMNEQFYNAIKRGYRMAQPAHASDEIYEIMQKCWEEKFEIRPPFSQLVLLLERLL

O=C1NCc2c3c(c4c(c21)c1ccccc1n4CCO)-c1ccccc1CC3 [Compound X-4]
IC50 [1]: 0.138 µM | inhibition at 0.3 µM [2, 4]: 15%

O=C1NC(=O)c2c1c1c(c3[nH]c4ccccc4c23)-c2ccccc2C1 [IV-1]
melting point: > 300 °C | IC50 [1]: 0.071 µM | inhibition at 1 µM [3, 5]: 6% | inhibition at 0.3 µM [2, 4]: 0%

O=c1[nH]c(=O)c2c1c1c(=O)c3ccccc3c1c1[nH]c3ccccc3c12 [IV-2]
IC50 [1]: 0.87 µM | inhibition at 1 µM [3, 5]: 17% | inhibition at 0.3 µM [2, 4]: 2%

Cn1c2ccccc2c2c3c(c4c(c21)-c1ccccc1C4)C(=O)NC3=O [IV-3]
melting point: > 262 °C | IC50 [1]: 0.332 µM | inhibition at 1 µM [3, 5]: 0% | inhibition at 0.3 µM [2, 4]: 18%

O=C1NC(=O)c2c1c1c(c3[nH]c4ccccc4c23)-c2ccccc2CC1 [IV-5]
IC50 [1]: 0.16 µM | PDGFRβ (% inhibition @ 1 μM) [3, 5]: (26) % | trkA (% inhibition @ 300 nM) [2, 4]: (14) %

COc1ccc2[nH]c3c4c(c5c(c3c2c1)C(=O)NC5=O)CCc1ccccc1-4 [IV-6]
inhibition at 0.3 µM ([1]; read-out: VEGFR kinase (% inhibition @ 300 nM)): 14%

O=C1NC(=O)c2c1c1c(c3[nH]c4ccc(Br)cc4c23)-c2ccccc2CC1 [IV-9]
melting point: > 300 °C | IC50 [1]: 2.86 µM | inhibition at 1 µM [3, 5]: 20% | inhibition at 0.3 µM [2, 4]: 6%

O=C1NC(=O)c2c1c1sc3ccccc3c1c1[nH]c3ccccc3c21 [IV-10]
IC50 [1]: 5.33 µM | inhibition at 1 µM [3, 5]: 11% | inhibition at 0.3 µM [2, 4]: 6%

O=C1NC(=O)c2c1c1c(c3[nH]c4ccccc4c23)-c2ccccc2OC1 [IV-11]
IC50 [1]: 0.555 µM | inhibition at 1 µM [3, 5]: 6% | inhibition at 0.3 µM [2, 4]: 4%

COCC1c2ccccc2-c2c1c1c(c3c2[nH]c2ccccc23)C(=O)NC1=O (centres unmarked) [IV-12]
VEGFR kinase (% inhibition @ 300 nM) [1]: (19) %

O=C1NC(=O)c2c1c1c(c3[nH]c4ccccc4c23)-c2ccccc2C1C(O)c1cccnc1 (centres unmarked) [IV-13]
VEGFR kinase (% inhibition @ 300 nM) [1]: (8) %

O=C1NC(=O)c2c1c1c(c3[nH]c4ccccc4c23)-c2ccccc2C1CO (centres unmarked) [IV-15]
VEGFR kinase (% inhibition @ 300 nM) [1]: (7) %

O=C1NC(=O)c2c1c1c(c3[nH]c4ccccc4c23)-c2ccccc2C1c1cccs1 (centres unmarked) [IV-16]
VEGFR kinase (% inhibition @ 300 nM) [1]: (14) %

COCCOCC1c2ccccc2-c2c1c1c(c3c2[nH]c2ccccc23)C(=O)NC1=O (centres unmarked) [IV-17]
VEGFR kinase (% inhibition @ 300 nM) [1]: (3) %

O=C1NC(=O)c2c1c1c(c3[nH]c4ccccc4c23)-c2ccccc2C1C(O)c1ccncc1 (centres unmarked) [IV-18]
VEGFR kinase (% inhibition @ 300 nM) [1]: (8) %

N#CCCn1c2ccccc2c2c3c(c4c(c21)-c1ccccc1CC4)C(=O)NC3=O [IV-19]
VEGFR kinase (% inhibition @ 300 nM) [1]: (4) %

N#CCCCn1c2ccccc2c2c3c(c4c(c21)-c1ccccc1CC4)C(=O)NC3=O [IV-20]
VEGFR kinase (% inhibition @ 300 nM) [1]: (11) %

CCOC(=O)CCn1c2ccccc2c2c3c(c4c(c21)-c1ccccc1CC4)C(=O)NC3=O [IV-21]
VEGFR kinase (% inhibition @ 300 nM) [1]: (7) %

O=C(O)CCn1c2ccccc2c2c3c(c4c(c21)-c1ccccc1CC4)C(=O)NC3=O [IV-22]
VEGFR kinase (% inhibition @ 300 nM) [1]: (8) %

NCCCn1c2ccccc2c2c3c(c4c(c21)-c1ccccc1CC4)C(=O)NC3=O [IV-23]
VEGFR kinase (% inhibition @ 300 nM) [1]: (0) %

CS(=O)(=O)NCCCn1c2ccccc2c2c3c(c4c(c21)-c1ccccc1CC4)C(=O)NC3=O [IV-24]
VEGFR kinase (% inhibition @ 300 nM) [1]: (0) %

CC(=O)NCCCn1c2ccccc2c2c3c(c4c(c21)-c1ccccc1CC4)C(=O)NC3=O [IV-25]
VEGFR kinase (% inhibition @ 300 nM) [1]: (0) %

CNC(=S)NCCCn1c2ccccc2c2c3c(c4c(c21)-c1ccccc1CC4)C(=O)NC3=O [IV-26]
VEGFR kinase (% inhibition @ 300 nM) [1]: (10) %

O=C(NCCCn1c2ccccc2c2c3c(c4c(c21)-c1ccccc1CC4)C(=O)NC3=O)Nc1ccccc1 [IV-27]
VEGFR kinase (% inhibition @ 300 nM) [1]: (5) %

CC(C)(C)OC(=O)N1CCCC1C(=O)NCCCn1c2ccccc2c2c3c(c4c(c21)-c1ccccc1CC4)C(=O)NC3=O (centres unmarked) [IV-29]
VEGFR kinase (% inhibition @ 300 nM) [1]: (1) %

O=C1NC(=O)c2c1c1c(c3c2c2ccccc2n3CCCNC(=O)C2CCCN2)-c2ccccc2CC1 (centres unmarked) [IV-30]
VEGFR kinase (% inhibition @ 300 nM) [1]: (1) %

CS(=O)(=O)N1CCCC1C(=O)NCCCn1c2ccccc2c2c3c(c4c(c21)-c1ccccc1CC4)C(=O)NC3=O (centres unmarked) [IV-31]
VEGFR kinase (% inhibition @ 300 nM) [1]: (10) %

CS(=O)(=O)NCc1ccc2[nH]c3c4c(c5c(c3c2c1)C(=O)NC5=O)CCc1ccccc1-4 [IV-34]
VEGFR kinase (% inhibition @ 300 nM) [1]: (54) %

CNC(=S)NCc1ccc2[nH]c3c4c(c5c(c3c2c1)C(=O)NC5=O)CCc1ccccc1-4 [IV-35]
VEGFR kinase (% inhibition @ 300 nM) [1]: 43% | IC50 [1]: 0.316 µM

CC(C)(C)OC(=O)C=Cc1ccc2[nH]c3c4c(c5c(c3c2c1)C(=O)NC5=O)CCc1ccccc1-4 [IV-36]
VEGFR kinase (% inhibition @ 300 nM) [1]: (17) %

O=C(O)C=Cc1ccc2[nH]c3c4c(c5c(c3c2c1)C(=O)NC5=O)CCc1ccccc1-4 [IV-37]
VEGFR kinase (% inhibition @ 300 nM) [1]: (11) %

CC(C)(C)OC(=O)CCc1ccc2[nH]c3c4c(c5c(c3c2c1)C(=O)NC5=O)CCc1ccccc1-4 [IV-38]
VEGFR kinase (% inhibition @ 300 nM) [1]: (5) %

O=C1NC(=O)c2c1c1c(c3[nH]c4ccc(C=Cc5ccccn5)cc4c23)-c2ccccc2CC1 [IV-39]
VEGFR kinase (% inhibition @ 300 nM) [1]: (8) %

O=C(O)CCc1ccc2[nH]c3c4c(c5c(c3c2c1)C(=O)NC5=O)CCc1ccccc1-4 [IV-40]
VEGFR kinase (% inhibition @ 300 nM) [1]: (10) %

O=C1NC(=O)c2c1c1c(c3c2c2ccccc2n3CCCOCc2ccccc2)-c2ccccc2CC1 [IV-41]
VEGFR kinase (% inhibition @ 300 nM) [1]: (34) %

O=C1NC(=O)c2c1c1c(c3c2c2ccccc2n3CCCO)-c2ccccc2CC1 [IV-42]
VEGFR kinase (% inhibition @ 300 nM) [1]: (42) %

N#CC=Cc1ccc2[nH]c3c4c(c5c(c3c2c1)C(=O)NC5=O)CCc1ccccc1-4 [IV-43]
VEGFR kinase (% inhibition @ 300 nM) [1]: (8) %

N#Cc1ccc2c(c1)c1c3c(c4c(c1n2CCCOCc1ccccc1)-c1ccccc1CC4)C(=O)NC3=O [IV-44]
VEGFR kinase (% inhibition @ 300 nM) [1]: (3) %

O=C1NCc2c1c1c(c3[nH]c4ccccc4c23)-c2ccccc2C1 [IX-1]
VEGFR kinase (% inhibition @ 300 nM) [1]: (10) % | PDGFRβ (% inhibition @ 1 μM) [3, 5]: (23) % | trkA (% inhibition @ 300 nM) [2, 4]: (9) %

O=C1NCc2c1c1c(c3[nH]c4ccccc4c23)-c2ccccc2CC1 [IX-2]
IC50 [1]: 8.75 µM | PDGFRβ (% inhibition @ 1 μM) [3, 5]: (8) % | trkA (% inhibition @ 300 nM) [2, 4]: (9) %

O=C1NC(=O)c2c1c1c(c3[nH]c4ncccc4c23)-c2ccccc2CC1 [XIII]
IC50 [1]: 8.39 µM | inhibition at 1 µM [3, 5]: 10%

O=C1NC(=O)c2c1c1ccc3sccc3c1c1[nH]c3ccccc3c21 [XVII]
IC50 [1]: 0.796 µM | inhibition at 1 µM [3]: 24% | inhibition at 0.3 µM [2]: 10%
